Assay results published in patent US6800618B2, “Chemosensitizing agents against chloroquine resistant plasmodium falciparum and methods of making and using thereof” (The United States of America as represented by the …, priority 2001, dated 2004).

Experiments:
TM91C235 cells = test: In vitro reversal activity (cell growth suppression, 3H-hypoxanthine incorporation) in TM91C235 cells; assay type: cell-based, Plasmodium falciparum; details: for restoring the drug sensitivity of the mefloquine resistant cell line: coadministration with mefloquine; for Control % sup: test compounds only
From the text: For quantitative in vitro drug susceptibility testing, two well characterized P. falciparum clones, W2 and D6, were used. See Oduola et al. (1988) Exp Parasitol 66:86-95, which is herein incorporated by reference. W2 is a clone of the Indochina I isolate and is resistant to chloroquine and pyrimethamine, but susceptible to mefloquine. D6 is a clone from the Sierra I/UNC isolate and is susceptible to chloroquine and pyrimethamine, but has reduced susceptibilities to mefloquine and halofantrine. TM91C235 was isolates from Thailand and is highly resistant to mefloquine, chloroquine, and quinine.
The in vitro antimalarial drug susceptibility assay used is a modification of the procedures first published by Desjardins, et al. with modifications developed by Milhous, et al. See Desjardins, R. E., et al. (1979) Antimicrobial Agents Chemother 16:710-718; and Milhous, et al. (1985) Antimicrobial Agents Chemother 27:525-530, which are herein incorporated by reference. In brief, the assay is based on the incorporation of radiolabeled hypoxanthine by the parasites and inhibition of isotope incorporation is attributed to activity of known or candidate antimalarial drugs. For each assay, proven antimalarials, such as chloroquine, mefloquine, quinine, artemisinin, pyrimethamine and sulfadoxine, were used as controls. The incubation period was 66 hours and the starting parasitemia was 0.2% with a 1% hematocrit. The media used was RPMI-1640 culture media with no folate or p-aminobenzoic acid (PABA). Albumax may be used instead of 10% normal heat inactivated human plasma.
If a candidate compound was tested without any prior knowledge of its activity or solubility, the compound was dissolved directly in dimethylsulfoxide (DMSO) and diluted 400 fold with complete culture media. These unknown compounds were normally started at a highest concentration of about 50,000 ng/ml. The compounds were then diluted 2-fold, 11 times, to give a concentration range of about 1,048-fold. These dilutions were performed automatically by a Biomek 1000 or 2000 Liquid Handling System into 96-well microtiter plates.
(§1) 25 μl of each diluted candidate compound was then transferred to test plates, 200 μl of parasitized erythrocytes (0.2% parasitemia and 1% hematocrit) were added, and incubated at 37° C. in a controlled environment of 5% CO2, 5% O2 and 90% N2. After 42 hours, 25 μl of ^3H-hypoxanthine was added and the plates were incubated for an additional 24 hours. At the end of the 66 hour incubation period, the plates were frozen at −70° C. to lyse the red cells and later thawed and harvested onto glass fiber filter mats by using a 96-well cell harvester. The filter mats were then counted in a scintillation counter and the data was analyzed.
Each of these test compounds were tested under three different concentrations, 5000, 500, and 50 ng/ml, in the presence of 10 ng/ml of chloroquine and 5 ng/ml of mefloquine. […] Thus, the compounds of the present invention may be used to treat, prevent or inhibit drug resistant malaria.

[1] = system: Plasmodium falciparum W2 clone; test: FIC index with chloroquine (isobologram analysis) in W2 clone; assay type: cell-based; set-up: key: 1.0 = additive; <1.0 = synergy; >1.0 = antagonism; details: 1:1 combination of drug and chloroquine; chloroquine-resistant W2 clone
Protocol: In brief, the assay is based on the incorporation of radiolabeled hypoxanthine by the parasites and inhibition of isotope incorporation is attributed to activity of known or candidate antimalarial drugs. For each assay, proven antimalarials, such as chloroquine, mefloquine, quinine, artemisinin, pyrimethamine and sulfadoxine, were used as controls. The incubation period was 66 hours and the starting parasitemia was 0.2% with a 1% hematocrit. […] Albumax may be used instead of 10% normal heat inactivated human plasma.
as §1
(§2) The FIC is the actual IC50 of one compound in the presence of a second compound but is expressed as a fraction of its IC50 when used alone. This index is a mathematical representation of the isobologram such that an FIC index of 1.0 represents the line of additive on the isobologram. An FIC index of less than 1.0 represents synergy or potentiation and an FIC index of greater than 1.0 represents antagonism.
In the isobologram graphs as shown in FIGS. 1-3, the x-axis is fractional inhibitory concentration (FIC) of chloroquine and the y-axis is FIC of chemosensitizing agent. The FIC is the actual IC50 of one drug in the presence of the second drug but is expressed as a fraction of its IC50 when used alone. If the isobologram graph is a straight line, it represents an additive effect of the two drugs. If the graph forms a concave curve below the line, it indicates synergy or potentiation of the combination. Below the line means synergy or potentiation and above the line means antagonism.

TM91C235 = test: FIC index in TM91C235 isolate; assay type: cell-based, Plasmodium falciparum; set-up: key: 1.0 = additive; <1.0 = synergy; >1.0 = antagonism; details: isolate from Southeast Asia (Thailand); same method as for W-2
Protocol: as §2, with “Fifty percent inhibitory concentrations (IC50s) were determined for each candidate compound alone and for candidate compounds in fixed combinations of their respective IC50s (1:1, 1:3, 3:1). […] The” for “The”
The same assay method described above for W-2 was used except that the strains used were isolated from Thailand, Brazil, and Peru, respectively.

RCS = test: FIC index in RCS isolate; assay type: cell-based, Plasmodium falciparum; set-up: key: 1.0 = additive; <1.0 synergy; >1.0 antagonism; details: isolate from Brazil; same method as for W-2
Protocol: (§3) Fifty percent inhibitory concentrations (IC50s) were determined for each candidate compound alone and for candidate compounds in fixed combinations of their respective IC50s (1:1, 1:3, 3:1). […] See Elion, G. V., et al. (1954) J Biol Chem 208:477-488, which is herein incorporated by reference. The FIC is the actual IC50 of one compound in the presence of a second compound but is expressed as a fraction of its IC50 when used alone. This index is a mathematical representation of the isobologram such that an FIC index of 1.0 represents the line of additive on the isobologram. An FIC index of less than 1.0 represents synergy or potentiation and an FIC index of greater than 1.0 represents antagonism.
(§4) Parasites from different regions responded differently to the compounds of the present invention. The same assay method described above for W-2 was used except that the strains used were isolated from Thailand, Brazil, and Peru, respectively.

Peruvian PC49 = test: FIC index in Peruvian PC49 isolate; assay type: cell-based, Plasmodium falciparum; set-up: key: 1.0 = additive; <1.0 synergy; >1.0 antagonism; details: isolate from South America (Peru); same method as for W-2
Protocol: as §3, §4

[2] = test compound 50 ng/ml combined with 5 ng/ml mefloquine
[3] = test compound 50 ng/ml combined with 10 ng/ml chloroquine
[4] = test compound 500 ng/ml combined with 5 ng/ml mefloquine
[5] = test compound 500 ng/ml combined with 10 ng/ml chloroquine
[6] = test compound 5000 ng/ml combined with 5 ng/ml mefloquine
[7] = test compound 5000 ng/ml combined with 10 ng/ml chloroquine

Compound	Mefloquine % SUP (TM91C235 cells; [2]) [%]	Chloroquine % sup (TM91C235 cells; [3]) [%]	Mefloquine % SUP (TM91C235 cells; [4]) [%]	Chloroquine % sup (TM91C235 cells; [5]) [%]	Mefloquine % SUP (TM91C235 cells; [6]) [%]	Chloroquine % sup (TM91C235 cells; [7]) [%]	Control % sup (TM91C235 cells; 50 ng/ml) [%]	Control % sup (TM91C235 cells; 500 ng/ml) [%]	Control % sup (TM91C235 cells; 5000 ng/ml) [%]	FIC (fractional inhibitory concentration) index [1]	FIC index TM91C235 (TM91C235)	FIC index RCS (RCS)	other results
Cc1ccc(CNCCCCN2c3ccccc3Sc3ccccc32)cc1 [7c, 10-(4-Methylbenzylaminobutyl)phenothiazine]	0	14	0	27	13	62	13	18	35	–	–	–	restoring the drug sensitivity of the mefloquine resistant cell line (TM91C235 cells): not very active
CN1CCN(CCCCN2c3ccccc3Sc3ccccc32)CC1 [7h, 10-[4-(4-Methyl-piperazin-1-yl)-butyl]phenothiazine]	–	–	–	–	–	–	–	–	–	0.4	0.48	0.49	FIC index Peruvian PC49 (Peruvian PC49): 0.98
c1ccc2c(c1)CCc1ccccc1N2CCCCN1CCCCC1 [7n, 5-(4-Piperidin-1-yl-butyl) iminodibenzyl]	–	–	–	–	–	–	–	–	–	0.45	0.54	0.36	FIC index Peruvian PC49 (Peruvian PC49): 0.73
CCN(CC)CCCCCN1c2ccccc2CCc2ccccc21 [7u, 5-(5-Diethylaminopentyl)iminodibenzyl]	–	–	–	–	–	–	–	–	–	0.44	0.48	0.36	FIC index Peruvian PC49 (Peruvian PC49): 0.82
CCN(CC)CCCCCCN1c2ccccc2CCc2ccccc21 [7w, 5-(6-Diethylaminohexyl)iminodibenzyl]	–	–	–	–	–	–	–	–	–	0.48	0.59	0.72	–
CCN(CC)CCCC(C)Nc1ccnc2cc(Cl)ccc12 (stereo not shown) [chloroquine]	–	–	–	–	–	–	–	–	–	–	–	–	cell growth inhibition of TM91C235 cells by drug alone (TM91C235 cells; 10 ng/ml of chloroquine alone): did not inhibit the cell growth
c1ccc(CN(CCCCN2c3ccccc3CCc3ccccc32)Cc2ccccc2)cc1 [7l, 5-(4-Dibenzylaminobutyl)iminodibenzyl]	14	6	22	8	19	13	11	17	13	–	–	–	–
CCN(CC)CCCCN(c1ccccc1)c1ccccc1 [7s, N,N-Diethyl-N′,N′-diphenyl-butane-1,4-diamine]	–	–	–	–	–	–	–	–	–	0.48	0.3	0.33	–
c1ccc(N(CCCCN2CCCC2)c2ccccc2)cc1 [7t, Diphenyl-(4-pyrrolidin-1-yl-butyl)amine]	–	–	–	–	–	–	–	–	–	0.45	0.32	0.37	–
Cc1ccc(CNCCCCN2c3ccccc3CCc3ccccc32)cc1 [7k, 5-(4-Methylbenzylaminobutyl)iminodibenzyl]	20	10	22	20	41	33	30	32	60	–	–	–	–
OC(c1cc(C(F)(F)F)nc2c(C(F)(F)F)cccc12)C1CCCCN1 (stereo not shown) [mefloquine, reference compound]	–	–	–	–	–	–	–	–	–	–	–	–	cell growth inhibition of TM91C235 cells by drug alone (TM91C235 cells; 5 ng/ml of mefloquine alone): did not inhibit the cell growth
CN1CCN(CCCCN2c3ccccc3CCc3ccccc32)CC1 [7p, 5-[4-(4-Methyl-piperazin-1-yl)-butyl]iminodibenzyl]	–	–	–	–	–	–	–	–	–	0.52	0.54	0.66	–
c1ccc(CN(CCCCN2c3ccccc3Sc3ccccc32)Cc2ccccc2)cc1 [7d, 10-(4-Dibenzylaminobutyl)phenothiazine]	0	12	3	16	9	25	7	10	22	–	–	–	restoring the drug sensitivity of the mefloquine resistant cell line (TM91C235 cells): not very active
CN(C)CCCCN1c2ccccc2Sc2ccccc21 [7a, 10-(4-Dimethylaminobutyl)phenothiazine]	2	30	31	97	92	100	17	27	92	0.23	0.28	0.51	–
